The test system of series [1] is human fibrosarcoma cell strain HT-P11. Kind of series: Action of MSE for promoting procollagenase production (FITC-collagen collagenase activity of culture supernatant). It counts as cell-based.
Protocol: A test was carried out using anchorage independent cell strain which is derived from a human fibrosarcoma cell strain HT 1080 (ATCC CCL121) and growable in a serum-free, protein-free medium (referred to as "human fibrosarcoma cell strain HT-P11".). Namely, the above-described human fibrosarcoma cell strain HT 1080 (ATCC CCL1211) was cultured in the presence of serum in a flask having a base area of 25 cm^2 and the medium was replaced by the HF-AV medium. Replacing a fifth to half part of the cultured suspension with a fresh HF-AV medium every 3-4 days, the culture was continued in a serum-free, protein-free medium. The thus grown cells were used. The cells were pre-cultured as below to prepare a cell suspension which was then tested.
The human fibrosarcoma cell strain HT-P11 was suspended with a density of 1×10^5 cells/ml in the HF-AV medium. Flasks (each having a base area of 75 cm^2) were charged, respectively, with 20 ml of the resulting suspension, and stationarily cultured at 37° C. for 3 days in a 95% air/5% carbon dioxide gas atmosphere. […]
Using a type-I collagen labeled with fluorescein isothiocyanate (hereinafter abbreviated as "FITC") (a 1 mg/ml conc. FITC/collagen acetic acid solution, manufactured by Cosmo Bio Co.) as a substrate solution, the activity (unit/ml) of the above collagenase solution was determined in accordance with the following procedure.
Series [2] deals with Rats of hepatic fibrosis induced by CCl4. Put plainly: Effect of MSE in medical treatment for hepatic fibrosis (Hyp in liver and blood, blood plasma biochemistry). It counts as in vivo, male rats of Wistar origin. The settings on record: mean ± standard error (n = 5). As to the method:
(§1) A 2 ml/kg dose of an equivalent mixture of carbon tetra-chloride (CCl4) and olive oil was administered hypodermically to the back of male rats of Wistar origin (5 weeks old; a weight of 122-134 g; and 5 rats/group) twice a week (on Monday and Thursday) for 10 weeks to produce rats of hepatic fibrosis. A 3 ml/kg dose of a 66.6 mg/ml conc. MSE aqueous solution was administered perorally once a day for continual 7 weeks (except Sundays) from the 4th week after the commencement of the CCl4 administration.
Then, the whole blood was gathered from the abdominal aorta and collected in a test tube treated with heparin. This was centrifuged to obtain blood plasma. The blood plasma was stored at -80° C. until the under-mentioned biochemical examinations.
(§2) Further, after gathering the whole-blood, the liver was extracted, weighed and divided into halves under an ice-chilled condition. Then, one of the halves was frozen at -80° C. for quantification of hydroxyproline (hereinafter abbreviated as "Hyp") in the liver and the other half was fixed with a 10% formaline solution for a histological examination.
(§3) On the other hand, there were provided, as an untreated group, a group of the rats of hepatic fibrosis administered with 3 ml/kg of refined water in lieu of the MSE aqueous solution according to the same schedule as the above and, as a group of normal rats, a group bred for 10 weeks without administering CCl4 and the MSE aqueous solution. Blood-gathering and liver-extraction were conducted on these groups in the same manner as the above.
(§4) Then, using the above each liver and blood plasma, the Hyp in the liver and blood were quantified. Additionally, the Hyp is an index of the quantity of the collagen [Methods of Biochemical Analysis, Vol. 15, p. 25 (1967)]. Further, biochemical examinations of the blood plasma [refer to the under-described items (b)-(h)] and histological examinations of the liver [refer to the under-described item (i)], as indices of liver injury, were conducted.
(a) Quantities of the Hyp in liver and blood.
(a-1) Quantity of the Hyp in a liver: about 100 mg of a liver were weighed precisely and added with 250 μl of physiological salt solution. Then, the liver was disintegrated by agitating vigorously (at 28,000 rpm for 30 seconds) with a homogenizer (PHYSCOTRON™, manufactured by Niti-On Medical and Physical Instruments Mfg. Co.).
The obtained suspension was centrifuged (at 5,000 rpm for 10 min.) and separated into a supernatant sample and a precipitation sample. By adding a 6N hydrochloric acid, each sample was increased to 2 ml and hydrolyzed at 110° C. for 24 hours. The hydrolyzate solution was centrifugally condensed to remove hydrochloric acid therefrom and the condensate was dissolved in a 0.01N hydrochloric acid.
The obtained solution was quantified according to a determination method of amino acids by a high-performance liquid chromatography with a post-column derivatization [Proceedings of the National Academy of Sciences of the U.S.A., Vol. 72, No. 2, p. 619 (1975)] to find quantities of the Hyp in the supernatant sample and precipitation sample, respectively. Then, a quantity of the Hyp per unit weight of the liver (μmol/g of liver) was calculated from the total quantity of the Hyps in the supernatant sample and precipitation sample and the weight of the liver.
(a-2) Quantity of the Hyp in blood: 100 μl of blood plasma was admixed with 100 μl of a 5 w/v % sulfo-salicylic acid aqueous solution under an ice-chilled condition and centrifugally separated (10,000 rpm; for 3 min.) to obtain a supernatant liquor. The Hyp in the supernatant liquor was quantified according to the above-mentioned determination method of amino acids (μmol/1).
(b) Quantity of glutamic-pyruvic transaminase (hereinafter abbreviated as "GPT"):
(b-3) Measurement of test sample.
(c) Quantity of glutamic-oxaloacetic transaminase (hereinafter abbreviated as "GOT"): […]

Series [3] has the same test system. Put plainly: Histological examination of liver. The settings on record: as compared with the untreated group; hematoxylin-eosin. Type of series: in vivo, male rats of Wistar origin. The method, then: as §1, §2, §3, §4
(i) Histological examination of liver: a liver was sliced according to a usual method and, after staining with hematoxylin-eosin, it was microscopically observed.

For series [4], the system named is male mice of ICR strain. Kind of series: Acute toxicity. The settings on record: single peroral dose 5 g/kg of body weight, 5 male mice, observed 7 days. Type of series: in vivo. As to the method: An acute toxicity was examined as follows:
To 5 male mice of ICR strain (5 weeks old; a weight of 24~28 g), a 25 g/ml conc. MSE aqueous solution that had been prepared by dissolving MSE in refined water was perorally administered once in a dose of […] of the body weight (5 g/kg of the body weight, as MSE).

Series [5] concerns male rabbits of Japanese native strain. Put plainly: Skin irritative test (Draize method). It counts as in vivo. The method, then:
Using male rabbits of Japanese native strain (a weight of about 3 kg), a skin irritative test was conducted in accordance with the Draize method [Appraisal of the Safety of Chemicals in Foods, Drugs and Cosmetics, p.46 (1959) edited and published by the Editorial Committee, Association of Food & Drug Official of U.S.A.].
An abraded region (injured skin) was produced on the hair-trimmed back of the rabbits. An adhesive plaster for a patch test (RIBBON-AID™ of 1.2 cm×1.6 cm, manufactured by Liba-Tape & Co., Ltd.) was impregnated with 0.1 ml of a 1 wt. % MSE aqueous solution that had been prepared by dissolving MSE in refined water and attached onto the injured skin and a normal skin, respectively. After 24 hours, the plaster was detached to observe erythematic and edematous conditions of the skins. After 48 hours from detaching of the plaster, the same observation was made.
Based on the above scores and the following equation, primary irritant scores were calculated.
Primary irritant score=(A24 +A48)/2+(B24
Then, irritation degrees of the test compounds were appraised based upon the primary irritative scores and the criteria shown in Table 6.

The record followed here is patent US5565493A, “Collagen metabolism ameliorant and its use in the stimulation of hair growth” (Kanebo, Ltd., priority 1990, dated 1996).

The structures appear in SMILES notation.

Consider `CN[C@@H](CO)C(=O)O` [MSE, N-methyl-L-serine], for which the Production of procollagenase in series [1] (mean ± standard error (N = 3), control 3.7 ± 0.2, 600 μM MSE solution, 0.4 ml added to 2 ml culture, 13 days, P < 0.01) is 7.9 ± 0.7 unit/ml of culture solution. In series [1] (versus no additives (control)), the Production promotion rate was 114%. For the same compound, the “f: Quantity of alkaline phosphatase” value in series [2] (Bessey-Lowry's method, untreated 1270 ± 90, p < 0.01) came to 956 ± 114 unit/l. For the same compound, the “e: Quantity of gross bilirubin” value in series [2] (Malloy-Evelyn's method, untreated 0.36 ± 0.02, p < 0.1) worked out at 0.26 ± 0.05 m9/dl. In series [2] (blood plasma, untreated 0.26 ± 0.06), the “g: Thymol turbidimetric test value (TTT)” value was 0.18 ± 0.13 U of Kunkel. Also, the “h: Zinc sulphate turbidimetric test value (ZTT)” value in series [2] (blood plasma, untreated 0.78 ± 0.11, p < 0.01) is recorded as 0.26 ± 0.07 U of Kunkel. In addition, the “d: Quantity of γ-glutamyl transpeptidase (γ-GTP)” value in series [2] (blood plasma, untreated 17.6 ± 0.7, p < 0.1) came out at 14.4 ± 1.7 U/liter. Further, the “a-2: Quantity of the Hyp in blood” value in series [2] (blood plasma, untreated 30.6 ± 1.1, p < 0.1) came to 39.1 ± 3.6 μmol/1. Moreover, in series [2] (blood plasma, untreated 948 ± 92, p < 0.01), the “b: Quantity of glutamic-pyruvic transaminase (GPT)” value is given as 537 ± 182 Reitman-Frankel unit. Moreover, in series [2] (blood plasma, untreated 2170 ± 184, p < 0.01), the “c: Quantity of glutamic-oxaloacetic transaminase (GOT)” value is 875 ± 324 Reitman-Frankel unit. In addition, in series [2] (peroral 3 ml/kg of 66.6 mg/ml once a day, 7 weeks, untreated 10.0 ± 1.5, p < 0.1), the “a-1: Quantity of the Hyp in liver” value is listed as 6.79 ± 0.82 μmol/g of liver. In addition, in series [3], the cholangioepithelial cytogenesis result is “mitigated”, the cholangiolar hyperplasia result is on record as “mitigated” and the diffuse hepatocyte vacuolization entry is on record as “mitigated”. In addition, the deaths by administration result in series [4] is “no deaths”. Further, the primary irritative score entry in series [5] (0.1 ml of 1 wt. % MSE aqueous solution, injured and normal skin, after 24 and 48 hours) is given as “zero”. The appraisal of irritation result in series [5] (based on primary irritative score, 1 wt. % MSE aqueous solution) is “light irritation”.
